# Test results: the OligoGym collection
# Oligonucleotides are written 5' to 3', each unit as a sugar letter and its base; * is a phosphorothioate linkage, no mark a phosphodiester; rarer units and linkages stand in square brackets, end groups in braces. Plain capitals give the bases only. Oligonucleotides are given in HELM: sugar(base)linkage, 5' to 3'; d 2'-deoxyribose, r ribose, m 2'-O-methylribose, p phosphate. ss, as = sense and antisense strand; d = 2'-deoxy (DNA); r = 2'-OH (RNA)
# Target: SOST
# Experiment: reporter assay of Huesken 2005
# Conditions: siRNA
# Note: test concentration or dose not given here.
row,Substance,normalised inhibition (eCFP-eYFP dual reporter) [%]
1,RNA1{r(G)p.r(U)p.r(G)p.r(G)p.r(A)p.r(G)p.r(G)p.r(G)p.r(C)p.r(C)p.r(A)p.r(G)p.r(G)p.r(G)p.r(G)p.r(U)p.r(G)p.r(G)p.r(C)p.d(T)p.d(T)}|RNA2{r(G)p.r(C)p.r(C)p.r(A)p.r(C)p.r(C)p.r(C)p.r(C)p.r(U)p.r(G)p.r(G)p.r(C)p.r(C)p.r(C)p.r(U)p.r(C)p.r(C)p.r(A)p.r(C)p.d(T)p.d(A)}$$$RNA1{StrandType:ss}|RNA2{StrandType:as}$,52.8
2,RNA1{r(G)p.r(U)p.r(G)p.r(G)p.r(U)p.r(G)p.r(A)p.r(G)p.r(G)p.r(C)p.r(G)p.r(C)p.r(C)p.r(G)p.r(C)p.r(G)p.r(C)p.r(G)p.r(C)p.d(T)p.d(T)}|RNA2{r(G)p.r(C)p.r(G)p.r(C)p.r(G)p.r(C)p.r(G)p.r(G)p.r(C)p.r(G)p.r(C)p.r(C)p.r(U)p.r(C)p.r(A)p.r(C)p.r(C)p.r(A)p.r(C)p.d(C)p.d(G)}$$$RNA1{StrandType:ss}|RNA2{StrandType:as}$,65.2
3,RNA1{r(G)p.r(U)p.r(G)p.r(U)p.r(C)p.r(C)p.r(C)p.r(G)p.r(G)p.r(U)p.r(G)p.r(G)p.r(U)p.r(G)p.r(A)p.r(G)p.r(G)p.r(C)p.r(G)p.d(T)p.d(T)}|RNA2{r(C)p.r(G)p.r(C)p.r(C)p.r(U)p.r(C)p.r(A)p.r(C)p.r(C)p.r(A)p.r(C)p.r(C)p.r(G)p.r(G)p.r(G)p.r(A)p.r(C)p.r(A)p.r(C)p.d(A)p.d(G)}$$$RNA1{StrandType:ss}|RNA2{StrandType:as}$,62.9
4,RNA1{r(U)p.r(A)p.r(G)p.r(U)p.r(G)p.r(G)p.r(A)p.r(G)p.r(G)p.r(G)p.r(C)p.r(C)p.r(A)p.r(G)p.r(G)p.r(G)p.r(G)p.r(U)p.r(G)p.d(T)p.d(T)}|RNA2{r(C)p.r(A)p.r(C)p.r(C)p.r(C)p.r(C)p.r(U)p.r(G)p.r(G)p.r(C)p.r(C)p.r(C)p.r(U)p.r(C)p.r(C)p.r(A)p.r(C)p.r(U)p.r(A)p.d(C)p.d(A)}$$$RNA1{StrandType:ss}|RNA2{StrandType:as}$,72
5,RNA1{r(U)p.r(C)p.r(A)p.r(A)p.r(G)p.r(A)p.r(A)p.r(U)p.r(G)p.r(A)p.r(U)p.r(G)p.r(C)p.r(C)p.r(A)p.r(C)p.r(G)p.r(G)p.r(A)p.d(T)p.d(T)}|RNA2{r(U)p.r(C)p.r(C)p.r(G)p.r(U)p.r(G)p.r(G)p.r(C)p.r(A)p.r(U)p.r(C)p.r(A)p.r(U)p.r(U)p.r(C)p.r(U)p.r(U)p.r(G)p.r(A)p.d(A)p.d(C)}$$$RNA1{StrandType:ss}|RNA2{StrandType:as}$,68.7
6,RNA1{r(U)p.r(C)p.r(A)p.r(A)p.r(G)p.r(G)p.r(A)p.r(C)p.r(U)p.r(U)p.r(C)p.r(G)p.r(G)p.r(G)p.r(A)p.r(C)p.r(C)p.r(G)p.r(A)p.d(T)p.d(T)}|RNA2{r(U)p.r(C)p.r(G)p.r(G)p.r(U)p.r(C)p.r(C)p.r(C)p.r(G)p.r(A)p.r(A)p.r(G)p.r(U)p.r(C)p.r(C)p.r(U)p.r(U)p.r(G)p.r(A)p.d(G)p.d(C)}$$$RNA1{StrandType:ss}|RNA2{StrandType:as}$,61.3
7,RNA1{r(U)p.r(C)p.r(G)p.r(G)p.r(A)p.r(G)p.r(C)p.r(U)p.r(C)p.r(A)p.r(A)p.r(G)p.r(G)p.r(A)p.r(C)p.r(U)p.r(U)p.r(C)p.r(G)p.d(T)p.d(T)}|RNA2{r(C)p.r(G)p.r(A)p.r(A)p.r(G)p.r(U)p.r(C)p.r(C)p.r(U)p.r(U)p.r(G)p.r(A)p.r(G)p.r(C)p.r(U)p.r(C)p.r(C)p.r(G)p.r(A)p.d(C)p.d(T)}$$$RNA1{StrandType:ss}|RNA2{StrandType:as}$,61.8
8,RNA1{r(U)p.r(C)p.r(G)p.r(G)p.r(C)p.r(C)p.r(G)p.r(C)p.r(G)p.r(G)p.r(C)p.r(A)p.r(A)p.r(G)p.r(U)p.r(G)p.r(G)p.r(U)p.r(G)p.d(T)p.d(T)}|RNA2{r(C)p.r(A)p.r(C)p.r(C)p.r(A)p.r(C)p.r(U)p.r(U)p.r(G)p.r(C)p.r(C)p.r(G)p.r(C)p.r(G)p.r(G)p.r(C)p.r(C)p.r(G)p.r(A)p.d(T)p.d(G)}$$$RNA1{StrandType:ss}|RNA2{StrandType:as}$,66
9,RNA1{r(U)p.r(G)p.r(C)p.r(A)p.r(A)p.r(G)p.r(C)p.r(G)p.r(C)p.r(C)p.r(U)p.r(C)p.r(A)p.r(C)p.r(C)p.r(C)p.r(G)p.r(C)p.r(U)p.d(T)p.d(T)}|RNA2{r(A)p.r(G)p.r(C)p.r(G)p.r(G)p.r(G)p.r(U)p.r(G)p.r(A)p.r(G)p.r(G)p.r(C)p.r(G)p.r(C)p.r(U)p.r(U)p.r(G)p.r(C)p.r(A)p.d(C)p.d(T)}$$$RNA1{StrandType:ss}|RNA2{StrandType:as}$,66.2
10,RNA1{r(U)p.r(G)p.r(C)p.r(G)p.r(G)p.r(C)p.r(C)p.r(C)p.r(G)p.r(G)p.r(C)p.r(G)p.r(C)p.r(G)p.r(C)p.r(C)p.r(U)p.r(G)p.r(C)p.d(T)p.d(T)}|RNA2{r(G)p.r(C)p.r(A)p.r(G)p.r(G)p.r(C)p.r(G)p.r(C)p.r(G)p.r(C)p.r(C)p.r(G)p.r(G)p.r(G)p.r(C)p.r(C)p.r(G)p.r(C)p.r(A)p.d(C)p.d(T)}$$$RNA1{StrandType:ss}|RNA2{StrandType:as}$,52.1
11,RNA1{r(U)p.r(U)p.r(C)p.r(A)p.r(C)p.r(C)p.r(C)p.r(G)p.r(C)p.r(U)p.r(A)p.r(C)p.r(G)p.r(U)p.r(G)p.r(A)p.r(C)p.r(C)p.r(G)p.d(T)p.d(T)}|RNA2{r(C)p.r(G)p.r(G)p.r(U)p.r(C)p.r(A)p.r(C)p.r(G)p.r(U)p.r(A)p.r(G)p.r(C)p.r(G)p.r(G)p.r(G)p.r(U)p.r(G)p.r(A)p.r(A)p.d(G)p.d(T)}$$$RNA1{StrandType:ss}|RNA2{StrandType:as}$,57.5

# Target: UBE2V1
# Experiment: reporter assay of Huesken 2005
# Conditions: siRNA
row,Substance,normalised inhibition (eCFP-eYFP dual reporter) [%]
1,sense rArArArGrGrArGrUrArArArArGrUrCrCrCrUrCdTdT / antisense rGrArGrGrGrArCrUrUrUrUrArCrUrCrCrUrUrUdGdC,65.6
2,sense rArArArUrUrUrCrArCrUrGrCrArArArGrGrArGdTdT / antisense rCrUrCrCrUrUrUrGrCrArGrUrGrArArArUrUrUdTdC,45.8
3,sense rArArCrCrGrArArUrArUrArCrArGrCrCrUrUrAdTdT / antisense rUrArArGrGrCrUrGrUrArUrArUrUrCrGrGrUrUdTdT,96.1
4,sense rArArCrCrUrArGrArArArArUrUrUrCrArCrUrGdTdT / antisense rCrArGrUrGrArArArUrUrUrUrCrUrArGrGrUrUdCdA,49.4
5,sense rArArGrArGrCrCrArUrArUrCrArGrUrGrCrUrAdTdT / antisense rUrArGrCrArCrUrGrArUrArUrGrGrCrUrCrUrUdGdG,84.4
6,sense rArArUrArUrArCrArGrCrCrUrUrArArArArUrAdTdT / antisense rUrArUrUrUrUrArArGrGrCrUrGrUrArUrArUrUdCdG,82.9
